# Results published in the supplement of paper PMC11208160.
# Assay: recombinant UMI read abundance after kanamycin selection (control-corrected) (log10(CPM+1)); higher = more efficient recombination; extreme values may be limits of the assay; sequences stand for … in AGTGCAGAGAAAATCGGCCAGTTTTCTCTGCCTGCAGTCCGCATGCCGTGGGACCCCTTGGGTTCTAACCTGTTGCCTAGATTTATGCAGCGGACTGCCTTTCTCCCAAAGTGATAAACCGG…AGGTTGGTTTCACT; site = the 11-nt donor
# In short: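 Sequencing read counts were converted to CPM, averaged over two replicates and scaled by control-derived factors. Results are given as log10(CPM+1). The reads covered the donor–target junction of recombinant UMIs from a pooled Escherichia coli screen of donor and donor-binding-loop pairs for the IS621 bridge recombinase.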
# 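Further: IS621 bridge recombinase in Escherichia coli cells against a fixed T5 target plasmid.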
row,Sequence,recombinant UMI read abundance (log10)
1,AGTAGCTCATGGACCGGTTTTCCCGGTAATCCGTATTTGGC (site AGTAGCTCTGC),2.79
2,AGTAGTACATGGACCGGTTTTCCCGGTAATCCGTATTTGGT (site AGTAGTACTAC),0.706
3,AGTAGTGCATGGACCGGTTTTCCCGGTAATCCGTATTTGGT (site AATAGTGCTAC),0.246
4,AGTAGTGCATGGACCGGTTTTCCCGGTAATCCGTATTTGGT (site ACTAGTGCTAC),0.699
5,AGTAGTGCATGGACCGGTTTTCCCGGTAATCCGTATTTGGT (site AGTAGTGCTAC),1.3
6,AGTAGTGCATGGACCGGTTTTCCCGGTAATCCGTATTTGGT (site ATTAGTGCTAC),0.00696
7,AGTATTTCATGGACCGGTTTTCCCGGTAATCCGTATTTGAG (site AGTATTTCTCT),1.39
8,AGTCAGACATGGACCGGTTTTCCCGGTAATCCGTATTTGGC (site AGTCAGACTGC),2.34
9,AGTCCGACATGGACCGGTTTTCCCGGTAATCCGTATTTGTC (site AGTCCGACTGA),0.624
10,AGTCGTACATGGACCGGTTTTCCCGGTAATCCGTATTTGGA (site AGTCGTACTTC),0.529
11,AGTCTGGCATGGACCGGTTTTCCCGGTAATCCGTATTTGAA (site AGTCTGGCTTT),1.19
12,AGTCTTACATGGACCGGTTTTCCCGGTAATCCGTATTTGGT (site AGTCTTACTAC),1.14
13,AGTGCCGCATGGACCGGTTTTCCCGGTAATCCGTATTTGGG (site AGTGCCGCTCC),0.025
14,AGTGTAACATGGACCGGTTTTCCCGGTAATCCGTATTTGCT (site AATGTAACTAG),1.36
15,AGTGTAACATGGACCGGTTTTCCCGGTAATCCGTATTTGCT (site ACTGTAACTAG),1.47
16,AGTGTAACATGGACCGGTTTTCCCGGTAATCCGTATTTGCT (site AGTGTAACTAG),1.94
17,AGTGTAACATGGACCGGTTTTCCCGGTAATCCGTATTTGCT (site ATTGTAACTAG),1.12
18,AGTGTCTCATGGACCGGTTTTCCCGGTAATCCGTATTTGAG (site AGTGTCTCTCT),1.2
19,AGTTAGGCATGGACCGGTTTTCCCGGTAATCCGTATTTGGA (site AGTTAGGCTTC),0.957
20,AGTTCAGCATGGACCGGTTTTCCCGGTAATCCGTATTTGAT (site AGTTCAGCTAT),1.05
21,AGTTCCTCATGGACCGGTTTTCCCGGTAATCCGTATTTGCA (site AGTTCCTCTTG),2.47
22,AGTTCGACATGGACCGGTTTTCCCGGTAATCCGTATTTGAC (site AGTTCGACTGT),0.845
23,AGTTGATCATGGACCGGTTTTCCCGGTAATCCGTATTTGAC (site AGTTGATCTGT),1.28
24,AGTTGCTCATGGACCGGTTTTCCCGGTAATCCGTATTTGAA (site AGTTGCTCTTT),0.47
25,AGTTGGCCATGGACCGGTTTTCCCGGTAATCCGTATTTGGG (site AGTTGGCCTCC),0.0248
26,AGTTGTTCATGGACCGGTTTTCCCGGTAATCCGTATTTGTT (site AGTTGTTCTAA),0.233
27,AGTTTCCCATGGACCGGTTTTCCCGGTAATCCGTATTTGTG (site AGATTCCCTCA),0.0216
28,AGTTTCCCATGGACCGGTTTTCCCGGTAATCCGTATTTGTG (site AGCTTCCCTCA),0.0227
29,AGTTTCCCATGGACCGGTTTTCCCGGTAATCCGTATTTGTG (site AGGTTCCCTCA),0.0056
